Reference: ChEMBL document CHEMBL2034960, “Bryonolic acid transcriptional control of anti-inflammatory and antioxidant genes in macrophages in vitro and in vivo” (J Nat Prod, 2012)

System: RAW264.7
Test: Cytotoxicity against mouse RAW264.7 cells at 100 uM after 8 hrs by MTT assay
Assay type: cell-based
Settings: raw264.7, 8 h

CC1(C)[C@@H](O)CC[C@]2(C)[C@H]3C(=O)C=C4[C@@H]5C[C@@](C)(C(=O)O)CC[C@]5(C)CC[C@@]4(C)[C@]3(C)CC[C@@H]12 [ENOXOLONE]
Activity: Toxic
